The experiment has as its target LSD-1 enzyme (Homo sapiens (Human), UniProt O60341). Format: biochemical. The protocol: LANCE LSD1/KDM1A demethylase assay-10 μL of 1 nM LSD-1 enzyme (ENZO BML-SE544-0050) in the assay buffer (50 mM Tris, pH 7.5, 0.01% Tween-20, 25 mM NaCl, 5 mM DTT) were preincubated for 1 hour at 25° C. with 0.8 μL compound/DMSO dotted in black 384 well polystyrene plates. […] After stopping the reactions plates were incubated for 30 minutes and read on a PHERAstar FS plate reader (BMG Labtech).

Setting [1] is: 1 nM LSD-1 enzyme, 1 hour preincubation at 25° C., 0.4 μM biotin-labeled histone H3 peptide substrate.

Read-outs that look alike come from different tables or passages of the source.

`Cc1ccc(-c2c(-c3ccc(C#N)cc3)cc(OC[C@@H]3CCNC3)c3nncn23)cc1` [Example 1, 4-{5-(4-methylphenyl)-8-[(3R)-pyrrolidin-3-ylmethoxy][1,2,4]triazolo[4,3-a]pyridin-6-yl}benzonitrile] yielded an IC50 under setting [1] of at most 50 nM. Under setting [1], `Cc1ccc(-c2c(-c3ccc(C#N)c(F)c3)cc(OC[C@@H]3CCNC3)c3nncn23)cc1` [Example 2, 2-fluoro-4-{5-(4-methylphenyl)-8-[(3R)-pyrrolidin-3-ylmethoxy][1,2,4]triazolo[4,3-a]pyridin-6-yl}benzonitrile] returned an IC50 of at most 50 nM.

`Cc1ccc(-c2c(-c3ccc(C#N)cc3)cc(OC[C@@H]3CCNC3)c3n[nH]c(=O)n23)cc1` [Example 3, 4-{5-(4-methylphenyl)-3-oxo-8-[(3R)-pyrrolidin-3-ylmethoxy]-2,3-dihydro[1,2,4]triazolo[4,3-a]pyridin-6-yl}benzonitrile] registered an IC50 under setting [1] of at most 50 nM. `Cc1ccc(-c2c(-c3ccc(C#N)cc3)cc(OC[C@@H]3CCNC3)c3nn(CC#N)c(=O)n23)cc1` [Example 5, (R)-4-(2-(cyanomethyl)-3-oxo-8-(pyrrolidin-3-ylmethoxy)-5-p-tolyl-2,3-dihydro-[1,2,4]triazolo[4,3-a]pyridin-6-yl)benzonitrile] showed an IC50 below 50 nM. `Cc1ccc(-c2c(-c3ccc(C#N)cc3)cc(OC[C@@H]3CCNC3)c3nn(CCC#N)c(=O)n23)cc1` [Example 6, 4-{2-(2-cyanoethyl)-5-(4-methylphenyl)-3-oxo-8-[(3R)-pyrrolidin-3-ylmethoxy]-2,3-dihydro[1,2,4]triazolo[4,3-a]pyridin-6-yl}benzonitrile] displayed an IC50 under setting [1] of at most 50 nM. As to `Cc1ccc(-c2c(-c3ccc(C#N)cc3)cc(OC[C@@H]3CCNC3)c3nn(CC4CCCC4)c(=O)n23)cc1` [Example 7, 4-{2-(cyclopentylmethyl)-5-(4-methylphenyl)-3-oxo-8-[(3R)-pyrrolidin-3-ylmethoxy]-2,3-dihydro[1,2,4]triazolo[4,3-a]pyridin-6-yl}benzonitrile], the IC50 was below 50 nM. The compound `Cc1ccc(-c2c(-c3ccc(C#N)cc3)cc(OC[C@@H]3CCNC3)c3nn(CC4CCNCC4)c(=O)n23)cc1` [Example 13, 4-{5-(4-methylphenyl)-3-oxo-2-(piperidin-4-ylmethyl)-8-[(3R)-pyrrolidin-3-ylmethoxy]-2,3-dihydro[1,2,4]triazolo[4,3-a]pyridin-6-yl}benzonitrile] returned an IC50 under setting [1] of at most 50 nM. Under setting [1], `Cc1ccc(-c2c(-c3ccc(C#N)cc3)cc(OC[C@@H]3CCNC3)c3nn(CCOc4ccccc4)c(=O)n23)cc1` [Example 14, 4-{5-(4-methylphenyl)-3-oxo-2-(2-phenoxyethyl)-8-[(3R)-pyrrolidin-3-ylmethoxy]-2,3-dihydro[1,2,4]triazolo[4,3-a]pyridin-6-yl}benzonitrile] registered an IC50 of at most 50 nM. Same read-out and setting: the figure for `Cc1ccc(-c2c(-c3ccc(C#N)cc3)cc(OC[C@@H]3CCNC3)c3nn(CCN(C)C)c(=O)n23)cc1` [Example 15, 4-{2-[2-(dimethylamino)ethyl]-5-(4-methylphenyl)-3-oxo-8-[(3R)-pyrrolidin-3-ylmethoxy]-2,3-dihydro[1,2,4]triazolo[4,3-a]pyridin-6-yl}benzonitrile] is at most 50 nM. On to `Cc1ccc(-c2c(-c3ccc(C#N)cc3)cc(OC[C@@H]3CCNC3)c3nn(Cc4ccccc4)c(=O)n23)cc1` [Example 16, 4-{2-benzyl-5-(4-methylphenyl)-3-oxo-8-[(3R)-pyrrolidin-3-ylmethoxy]-2,3-dihydro[1,2,4]triazolo[4,3-a]pyridin-6-yl}benzonitrile], for which the IC50 is below 50 nM.

`Cc1ccc(-c2c(-c3ccc(C#N)cc3)cc(OC[C@@H]3CCNC3)c3nn(Cc4ccc(C#N)cc4)c(=O)n23)cc1` [Example 17, 4-{2-(4-cyanobenzyl)-5-(4-methylphenyl)-3-oxo-8-[(3R)-pyrrolidin-3-ylmethoxy]-2,3-dihydro[1,2,4]triazolo[4,3-a]pyridin-6-yl}benzonitrile] returned an IC50 under setting [1] of at most 50 nM.

For the origin of these results see patent US10138249B2, “Triazolopyridines and triazolopyrazines as LSD1 inhibitors” (priority 2014, dated 2018).
